≈ marks a conversion by molar mass, not a printed value. Read-outs that look alike come from different tables or passages of the source. Marks after values point to notes of the source that are not given here. Values belong to the compound of their own block, whether it stands above or below them.
Tests used:
[1] = DPPH free radical scavenging assay; settings: mean ± SD, n = 3
Method: The DPPH free radical scavenging ability was evaluated for the crude extracts using the DPPH (2,2-diphenyl-1-picrylhydrazyl) assay using a modified spectrophotometric method of Motamed and Naghibi (2010) [81]. The crude extracts (100 µL) were added to a 96-well plate containing distilled water (100 µL). After serial dilution, a 0.3 M DPPH/methanol (200 µL) solution was added to the mixture. The mixture was left at room temperature for 30 min, and the absorbance was measured using a SoftMax^R Pro 6 (version 6.3) microplate reader at 517 nm. All the crude extracts were tested in triplicate.
The percentage of radical scavenging was calculated by the following formula:% Free RSA = [(ADPPH − Asample)/(ADPPH)] × 100(2) where ADPPH is the absorbance of the DPPH solution and Asample is the absorbance of the samples and DPPH. The ability of the crude extracts to inhibit 50% of the free radical (IC50) was extrapolated from a graph of % RSA against concentration.

Reducing power assay = settings: mean ± SD, n = 3
Method: The reducing capacity of the crude extracts was estimated as described by Pereira et al. (2013). Fifty microliters of the crude extracts were mixed with fifty microliters of sodium phosphate buffer (0.2 M, pH 6.6). After serial dilution, a potassium hexacyanoferrate (1% aqueous, 50 μL) solution was added. A trichloroacetic acid (10%, 50 μL) solution was added after 20 min of incubation at 50 °C. Eighty microliters of each mixture was moved to another 96-well plate containing eighty microliters of distilled water. […] All the crude extracts were tested in triplicate.

[2] = cited from earlier work
[3] = cited from earlier work; remark: listed apart in the source
[4] = design: method as in earlier work; settings: ref 65 (Gülçin et al. 2012); cited from earlier work
[5] = design: method as in earlier work; settings: ref 65 (Gülçin et al. 2012); cited from earlier work; remark: listed apart in the source
Vero cells = test: MTT cytotoxicity assay; type: cell-based, African green monkey; settings: Chlorocebus sabaeus, 48 h, Vero monkey kidney cells, two days incubation, mean ± SD, n = 3
Method: African green monkey (Vero) kidney cells (ATCC CCL-81, Cellonex, Johannesburg, South Africa) were cultured in Minimal Essential Medium (MEM), which consisted of Earle’s Balanced Salt Solution (EBSS) and L-Glutamine (2.0 mM) (Cytiva Hyclone, Marlborough, MA, USA) and was supplemented with 10% fetal bovine serum (FBS) and 1% penicillin/streptomycin (P/S, Biowest, Nuaille, France). These cells were incubated for 48 h at 37 °C in a 95% air and 5% CO2 humidified incubator (Nϋve, Ankara, Turkey). The cells were trypsinized with 0.25% trypsin/EDTA (Cytiva Hyclone, Marlborough, MA, USA) and split at a ratio of 1:5 for further passaging at 70 to 80% confluency. […]
The 3-(4,5-dimethylthiazol-2-yl)-2,5-diphenyltetrazolium bromide (MTT) cytotoxicity assay was determined as described by Mariri et al. (2024). The cytotoxic effects of the crude extracts of Lippia multiflora were evaluated against Vero cells. […] The mixture was kept in the dark for 15 min, and the absorbance was measured spectrophotometrically at 570 nm on a SpectraMax iD3 multi-mode microplate reader (Winooski, VT, USA). The cell viability was calculated as the percentage (%) of negative control (0.5% dimethyl sulfoxide; see Equation (3)).
The extracts were calculated using the following equation:(3) Cell viability%=Abssample−AbsBlank/Absnegative control−AbsBlank×100 where Abs is the absorbance.

DPPH IC50 [1]: 44.308 ± 9.813 ^b µg/mL
Structure (SMILES): O=C1O[C@H]([C@@H](O)CO)C(O)=C1O [Ascorbic acid, ascorbic acid]
Reducing Power IC0.5 (Reducing power assay): 0.355 ± 0.393 ^a µg/mL

Structure (SMILES): COc1ccc(-c2coc3cc(O[C@@H]4O[C@H](CO)[C@@H](O)[C@H](O)[C@H]4O)ccc3c2=O)cc1 [Compound 8, Formononetin-7-O-glucoside (Ononin)]
DPPH radical IC50 ([2]; ref 62 (Zgórka et al. 2022)): 30.18 ± 0.37 mg/L
ABTS radical IC50 ([3]; ref 62 (Zgórka et al. 2022)): 30.30 ± 0.18 mg/L

Structure (SMILES): C[C@@H]1O[C@@H](Oc2c(-c3ccc(O)c(O)c3)oc3cc(O)cc(O)c3c2=O)[C@H](O)[C@H](O)[C@H]1O [Compound 10, Quercitrin]
DPPH radical scavenging IC50 ([2]; isolated from ethyl acetate stem of Lippia graveolens, ref 70 (González Güereca et al. 2007)): 11.24 ± 1.10 µg/mL

Structure (SMILES): CCCCC[C@H](O)CC(=O)CCc1ccc(O)c(OC)c1 [Compound 11, 6-Gingerol]
DPPH radical scavenging EC50 ([2]; isolated from rhizome of Zingiber officinale, ref 67 (Wang et al. 2003)): 23.07 mg/L

Structure (SMILES): Oc1cc(O)c2c(c1)O[C@H](c1cc(O)c(O)c(O)c1)[C@H](O)C2 [Compound 14, (−)-Epigallocatechin]
DPPH radical scavenging IC50 ([2]; from Japanese knotweed rhizome bark extract, ref 64 (Jug et al. 2021)): 1.5 µg/mL^−1

Structure (SMILES): COC(=O)C1=COC(C)C2CN3CCC4(C(=O)Nc5c4ccc(OC)c5OC)C3CC12 (stereo not drawn) [Compound 15, Isomajdine]
ABTS scavenging EC50 ([3]; ref 65 (Gülçin et al. 2012)): 34.11 mg/L
DMPD scavenging EC50 [4]: 32.09 mg/L
Ferrous ion (Fe^2+) chelating activity EC50 [5]: 10.05 mg/L

Structure (SMILES): COc1cccc2c1C(=O)c1c(O)c3c(c(O)c1C2=O)C[C@@](O)(C(=O)CO)C[C@@H]3O[C@H]1C[C@H](N)[C@H](O)[C@H](C)O1 [Doxorubicin]
IC50 (Vero cells): 4.97 ± 0.83 mg/L (≈ 9.14 µM)

DPPH IC50 [1]: 37.340 ± 17.529 ^ab µg/mL
Structure (SMILES): O=C(O)c1cc(O)c(O)c(O)c1 [Gallic acid, gallic acid]
Reducing Power IC0.5 (Reducing power assay): 8.210 ± 11.257 ^a µg/mL

DPPH IC50 [1]: 37.361 ± 21.356 ^b µg/mL
Structure (SMILES): O=c1c(O)c(-c2ccc(O)c(O)c2)oc2cc(O)cc(O)c12 [Quercetin, quercetin]
Reducing Power IC0.5 (Reducing power assay): 3.760 ± 2.979 ^a µg/mL

From article PMC12250754, “Phytochemical Screening and Biological Activities of Lippia multiflora Moldenke” (Molecules, 2025)
